Source: PMC9783868, “Indoline-5-Sulfonamides: A Role of the Core in Inhibition of Cancer-Related Carbonic Anhydrases, Antiproliferative Activity and Circumventing of Multidrug Resistance” (Pharmaceuticals, 2022)
Like-named read-outs stand apart in the source and are kept apart here.

How the values were obtained:
MCF7 cells = assay: Antiproliferative activity, MTT test; type: cell-based; conditions: Homo sapiens, MTT assay after 72 h exposure
Procedure: A series of synthesized indoline-5-sulfonamides was tested on the MCF7 cancer cell line under normoxia and hypoxia using the MTT test.
The MDR subline K562/4 [77] (kind gift of Dr. Alexander Shtil, Blokhin N.N. National Medical Research Center of Oncology) was obtained by stepwise selection of K562 cells for survival under continuous exposure to Dox. This subline expresses the MDR1 gene and functional P-gp and is characterized by a high resistance index for Dox. […] Cells in the logarithmic phase of growth were used in the experiments. The growth inhibitory activity of compounds was assessed by the MTT test based on the metabolism of the MTT reagent (3-[4,5-dimethylthiazol-2-yl]-2,5-diphenyltetrazolium bromide) (Applichem) in living cells, with modifications as described previously in [49]. Compounds at different concentrations in 100 μL of the appropriate medium were added, and the cells were grown for 72 h. The hypoxia (1% O2) conditions were simulated in Binder multigas incubator, as described in [49]. After incubation with compounds, the medium was removed, the MTT reagent that was dissolved in the medium was added to the final concentration of 0.2 mg/mL to each well, and the incubation was performed for 2 h. Then the cell supernatants were removed, and purple formazan crystals were dissolved in 100% DMSO (350 μL per well). Culture plates were gently shaken, and the absorbance was measured at 571 nm with a reference wavelength of 630 nm on a MultiScan reader (ThermoFisher, Waltham, MA, USA). The viability of the cells was expressed as a percentage of the control. Dose-response curves were analyzed by regression analysis using sigmoid curves (Log(concentration) vs. normalized absorbance).
All results were reported as means ± SD. One-way analysis of variance was used for the analysis of data. Differences were defined as significant at p < 0.05. GraphPad Prism7 (GraphPad Software, San Diego, CA, USA) was used for the determination of the half-maximal inhibitory concentration (IC50) values.

hCA XII = target: T1, hCA XII (Homo sapiens, UniProt O43570); assay: CA inhibition, stopped-flow CO2 hydration assay; type: biochemical; conditions: stopped-flow technique; mean from three assays
T1 construct: made in house
Procedure: (§1) The CO2 hydration activity of the four hCA isoforms was monitored using an Applied Photophysics stopped-flow instrument. Phenol red (at a concentration of 0.2 mM) was used as an indicator, working at the absorbance maximum of 557 nm, with 10 mM HEPES (pH 7.4) as a buffer, and 20 mM NaClO4 (for maintaining constant the ionic strength), following the initial rates of the CA-catalyzed CO2 hydration reaction for a period of 10–100 s. To determine the kinetic parameters by Lineweaver-Burk plots and the inhibition constants, a concentration of CO2 between 1.7 to 17 mM was used. At least six measurements of the original 5–10% reaction were used to assess the initial velocity for each inhibitor. The uncatalyzed rates were determined and detracted from the total observed rates. Stock inhibitor solutions (10–100 mM) were prepared in distilled-deionized water, and dilutions up to 0.1 nM were done with the buffer test. […] The inhibition constants were obtained by non-linear least-squares methods using PRISM 6 and the Cheng-Prusoff equation, as reported earlier, and represent the mean from at least three different determinations.

hCA II = target: T2, hCA II (Homo sapiens, UniProt P00918); assay: CA inhibition, stopped-flow CO2 hydration assay; type: biochemical; conditions: stopped-flow technique; mean from three assays
T2 construct: made in house
Procedure: as §1

hCA IX = target: T3, hCA IX (Homo sapiens, UniProt Q16790); assay: CA inhibition, stopped-flow CO2 hydration assay; type: biochemical; conditions: stopped-flow technique; mean from three assays
T3 construct: made in house
Procedure: as §1

hCA I = target: T4, hCA I (Homo sapiens, UniProt P00915); assay: CA inhibition, stopped-flow CO2 hydration assay; type: biochemical; conditions: stopped-flow technique; mean from three assays
T4 construct: made in house
Procedure: as §1

[1] = hypoxia (1% O2), read-out: IC50 against MCF7 Cells, Hypoxia
[2] = normoxia, read-out: IC50 against MCF7 Cells, Normoxia

T4 sequence (P00915 whole entry): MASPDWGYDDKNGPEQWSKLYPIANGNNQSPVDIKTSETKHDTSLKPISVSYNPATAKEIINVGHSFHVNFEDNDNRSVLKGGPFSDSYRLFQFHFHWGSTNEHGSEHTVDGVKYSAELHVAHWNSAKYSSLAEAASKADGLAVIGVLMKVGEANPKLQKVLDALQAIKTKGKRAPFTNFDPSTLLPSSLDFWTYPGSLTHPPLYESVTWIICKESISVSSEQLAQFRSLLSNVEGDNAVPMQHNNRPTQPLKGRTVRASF
T1 sequence (O43570 25-354): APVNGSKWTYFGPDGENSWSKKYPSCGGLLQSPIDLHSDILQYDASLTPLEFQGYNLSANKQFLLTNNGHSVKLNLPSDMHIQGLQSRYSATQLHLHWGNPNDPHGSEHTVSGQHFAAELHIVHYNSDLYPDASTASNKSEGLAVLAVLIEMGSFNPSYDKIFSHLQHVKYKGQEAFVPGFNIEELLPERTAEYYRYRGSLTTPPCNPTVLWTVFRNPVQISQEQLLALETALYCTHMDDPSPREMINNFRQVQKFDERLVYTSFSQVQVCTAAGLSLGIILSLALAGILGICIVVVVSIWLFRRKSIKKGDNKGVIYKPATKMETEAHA

Compound | IC50 (MCF7 cells; [1]) [nM] | IC50 (MCF7 cells; [2]) [nM] | melting point [°C] | Ki (hCA XII) [nM] | Ki (hCA II) [nM] | Ki (hCA IX) [nM] | Ki (hCA I) [nM]
NS(=O)(=O)c1ccc2c(c1)CCC2NC(=O)c1c(F)c(F)c(F)c(F)c1F (stereo not shown) [Compound 3, reference compound] | > 50000 | > 50000 | – | – | – | – | –
NS(=O)(=O)c1ccc2c(c1)CCN2C(=O)c1ccccc1 [Compound 4a, 1-Benzoylindoline-5-sulfonamide] | 36900 ± 3500 | > 50000 | > 250 | 258 | 5.4 | > 10000 | 79
NS(=O)(=O)c1ccc2c(c1)CCN2C(=O)c1ccc(F)cc1 [Compound 4c, 1-(4-Fluorobenzoyl)indoline-5-sulfonamide] | 32700 ± 2800 | 40600 ± 3800 | > 250 | > 10000 | 9.5 | 2250 | 88.3
NS(=O)(=O)c1ccc2c(c1)CCN2C(=O)c1c(F)cccc1F [Compound 4d, 1-(2,6-Difluorobenzoyl)indoline-5-sulfonamide] | 35900 ± 3400 | > 50000 | 244 to 246 | 41.3 | 9.1 | 1330 | 268
NS(=O)(=O)c1ccc2c(c1)CCN2C(=O)c1ccc(Cl)cc1 [Compound 4g, 1-(4-Chlorobenzoyl)indoline-5-sulfonamide] | 24200 ± 2100 | 36500 ± 3300 | > 250 | 57 | 66.2 | > 10000 | 242
NS(=O)(=O)c1ccc2c(c1)CCN2C(=O)c1ccc(Cl)c(Cl)c1 [Compound 4h, 1-(3,4-Dichlorobenzoyl)indoline-5-sulfonamide] | 48700 ± 4500 | 35200 ± 3500 | > 250 | 56 | 54 | > 10000 | 350
Cc1cccc(C(=O)N2CCc3cc(S(N)(=O)=O)ccc32)c1 [Compound 4i, 1-(3-Methylbenzoyl)indoline-5-sulfonamide] | 43600 ± 4000 | > 50000 | 247 to 249 | 93.9 | 36.1 | > 10000 | 220
COc1cccc(C(=O)N2CCc3cc(S(N)(=O)=O)ccc32)c1 [Compound 4j, 1-(3-Methoxybenzoyl)indoline-5-sulfonamide] | > 50000 | 46200 ± 3600 | 225 to 227 | 110 | 9.2 | > 10000 | 67.7
COc1ccc(C(=O)N2CCc3cc(S(N)(=O)=O)ccc32)cc1 [Compound 4k, 1-(4-Methoxybenzoyl)indoline-5-sulfonamide] | > 50000 | > 50000 | 240 to 242 | > 10000 | 9.3 | 173 | 77.7
COc1ccc(C(=O)N2CCc3cc(S(N)(=O)=O)ccc32)c(OC)c1 [Compound 4l, 1-(2,4-Dimethoxybenzoyl)indoline-5-sulfonamide] | > 50000 | 37000 ± 3000 | 249 to 251 | 113 | 4 | 203 | 71.5
CSc1ccc(C(=O)N2CCc3cc(S(N)(=O)=O)ccc32)cc1 [Compound 4n, 1-(4-(Methylthio)benzoyl)indoline-5-sulfonamide] | > 50000 | 18400 ± 1600 | 245 to 247 | 91 | 9.3 | 1990 | 71.4
NS(=O)(=O)c1ccc2c(c1)CCN2C(=O)c1ccccc1[N+](=O)[O-] [Compound 4o, 1-(2-Nitrobenzoyl)indoline-5-sulfonamide] | 39500 ± 3400 | 43700 ± 3700 | 238 to 240 | 120 | 4.5 | > 10000 | 83.4
NS(=O)(=O)c1ccc2c(c1)CCN2C(=O)c1ccc([N+](=O)[O-])cc1 [Compound 4p, 1-(4-Nitrobenzoyl)indoline-5-sulfonamide] | 39900 ± 3500 | 48800 ± 4400 | 247 to 249 | 198 | 42.2 | 2110 | 60.5
NS(=O)(=O)c1ccc2c(c1)CCN2C(=O)c1ccncc1 [Compound 4q, 1-Isonicotinoylindoline-5-sulfonamide] | > 50000 | > 50000 | > 250 | > 10000 | 12.5 | 2390 | 64
NS(=O)(=O)c1ccc2c(c1)CCN2C(=O)c1cccs1 [Compound 4r, 1-(Thiophene-2-carbonyl)indoline-5-sulfonamide] | 39100 ± 3900 | 47700 ± 3800 | > 250 | 147 | 5 | 177 | 42.2
NS(=O)(=O)c1ccc2c(c1)CCN2C(=O)C1CCCC1 [Compound 4s, 1-(Cyclopentanecarbonyl)indoline-5-sulfonamide] | > 50000 | > 50000 | 233 to 235 | 88.1 | 7.1 | 133 | 60.9
NS(=O)(=O)c1ccc2c(c1)CCN2C(=O)CC1CCCC1 [Compound 4t, 1-(2-Cyclopentylacetyl)indoline-5-sulfonamide] | 36000 ± 3300 | 38000 ± 3500 | 184 to 186 | > 10000 | 3.5 | 177 | 51.6
NS(=O)(=O)c1ccc2c(c1)CCN2C(=O)C1CCCCC1 [Compound 4u, 1-(Cyclohexanecarbonyl)indoline-5-sulfonamide] | 39200 ± 3400 | 37100 ± 3500 | > 250 | > 10000 | 1.8 | 223 | 67
